Source: ChEMBL document CHEMBL5291721, “A preclinical secondary pharmacology resource illuminates target-adverse drug reaction associations of marketed drugs” (Nat Commun, 2023)

How the values were obtained:
Substance-P receptor = Substance-P receptor (Homo sapiens, UniProt P25103)
Glucagon receptor = Glucagon receptor (Homo sapiens, UniProt P47871)
[1] = molecular target: T1, Corticotropin-releasing factor receptor 1 (Homo sapiens, UniProt P34998)
T1 sequence (P34998 whole entry): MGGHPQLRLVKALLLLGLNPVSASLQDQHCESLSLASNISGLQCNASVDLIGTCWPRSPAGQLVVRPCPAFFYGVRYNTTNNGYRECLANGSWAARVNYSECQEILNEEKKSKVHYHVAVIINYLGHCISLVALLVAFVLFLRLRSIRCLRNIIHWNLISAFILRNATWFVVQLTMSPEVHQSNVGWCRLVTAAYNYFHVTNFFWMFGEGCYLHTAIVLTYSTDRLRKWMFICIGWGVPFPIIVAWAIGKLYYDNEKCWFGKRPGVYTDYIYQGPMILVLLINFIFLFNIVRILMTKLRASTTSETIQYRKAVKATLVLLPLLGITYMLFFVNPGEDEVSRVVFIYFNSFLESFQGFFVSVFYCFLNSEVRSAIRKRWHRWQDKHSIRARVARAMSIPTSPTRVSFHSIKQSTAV

[2] = molecular target: T2, Endothelin receptor type B (Homo sapiens, UniProt P24530)
T2 sequence (P24530 whole entry): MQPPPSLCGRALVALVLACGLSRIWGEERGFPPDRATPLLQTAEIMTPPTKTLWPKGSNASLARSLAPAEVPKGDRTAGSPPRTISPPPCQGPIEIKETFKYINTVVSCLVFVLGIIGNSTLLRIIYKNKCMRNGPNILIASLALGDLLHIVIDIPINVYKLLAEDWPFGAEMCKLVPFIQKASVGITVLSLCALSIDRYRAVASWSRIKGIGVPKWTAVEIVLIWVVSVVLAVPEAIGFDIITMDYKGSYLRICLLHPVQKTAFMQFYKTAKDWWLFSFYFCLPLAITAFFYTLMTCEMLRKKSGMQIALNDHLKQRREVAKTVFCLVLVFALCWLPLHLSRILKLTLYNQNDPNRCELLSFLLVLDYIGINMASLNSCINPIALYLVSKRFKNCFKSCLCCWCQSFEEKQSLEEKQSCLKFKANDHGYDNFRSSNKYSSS

[3] = molecular target: Gamma-aminobutyric acid type B receptor subunit 1 (Homo sapiens, UniProt Q9UBS5)
Gamma-aminobutyric acid type B receptor subunit 1, sequence (Q9UBS5 whole entry): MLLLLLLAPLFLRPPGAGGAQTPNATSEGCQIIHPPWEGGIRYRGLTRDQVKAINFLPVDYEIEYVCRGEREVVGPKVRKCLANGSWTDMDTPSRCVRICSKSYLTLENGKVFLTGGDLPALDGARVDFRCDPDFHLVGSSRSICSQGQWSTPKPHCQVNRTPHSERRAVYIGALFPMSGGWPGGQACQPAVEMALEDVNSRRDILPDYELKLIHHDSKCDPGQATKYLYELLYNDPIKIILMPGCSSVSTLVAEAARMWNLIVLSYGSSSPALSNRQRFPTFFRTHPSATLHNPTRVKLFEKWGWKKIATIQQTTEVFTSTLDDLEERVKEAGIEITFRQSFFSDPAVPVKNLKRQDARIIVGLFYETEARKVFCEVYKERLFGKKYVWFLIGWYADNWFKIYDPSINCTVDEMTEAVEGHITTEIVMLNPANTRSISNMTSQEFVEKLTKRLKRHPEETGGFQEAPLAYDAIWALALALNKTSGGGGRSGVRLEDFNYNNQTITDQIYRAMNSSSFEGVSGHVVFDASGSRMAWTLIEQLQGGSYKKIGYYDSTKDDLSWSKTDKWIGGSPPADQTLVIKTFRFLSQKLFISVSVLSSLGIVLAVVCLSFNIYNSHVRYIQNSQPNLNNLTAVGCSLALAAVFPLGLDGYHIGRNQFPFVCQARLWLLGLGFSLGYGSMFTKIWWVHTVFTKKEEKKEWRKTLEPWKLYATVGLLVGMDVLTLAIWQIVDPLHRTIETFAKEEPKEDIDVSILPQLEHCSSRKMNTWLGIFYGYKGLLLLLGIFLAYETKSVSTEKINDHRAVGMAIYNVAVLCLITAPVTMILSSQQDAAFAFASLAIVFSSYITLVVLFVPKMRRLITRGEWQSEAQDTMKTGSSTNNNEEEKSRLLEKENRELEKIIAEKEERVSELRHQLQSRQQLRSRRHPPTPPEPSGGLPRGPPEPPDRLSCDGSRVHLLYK

[4] = molecular target: 5-hydroxytryptamine receptor 6 (Homo sapiens, UniProt P50406)
5-hydroxytryptamine receptor 6, sequence (P50406 whole entry): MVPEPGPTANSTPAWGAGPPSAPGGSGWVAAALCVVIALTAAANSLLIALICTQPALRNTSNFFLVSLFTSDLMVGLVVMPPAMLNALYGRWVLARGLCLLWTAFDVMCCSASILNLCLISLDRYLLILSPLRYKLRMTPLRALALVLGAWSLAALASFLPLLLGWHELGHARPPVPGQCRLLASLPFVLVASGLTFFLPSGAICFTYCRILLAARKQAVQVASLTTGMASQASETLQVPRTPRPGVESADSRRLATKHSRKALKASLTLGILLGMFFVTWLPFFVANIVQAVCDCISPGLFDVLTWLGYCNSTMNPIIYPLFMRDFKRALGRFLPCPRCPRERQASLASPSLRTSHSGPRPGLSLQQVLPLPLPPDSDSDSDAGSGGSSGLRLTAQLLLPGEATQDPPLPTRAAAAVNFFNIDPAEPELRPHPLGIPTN

Cannabinoid receptor 1 = Cannabinoid receptor 1 (Homo sapiens, UniProt P21554); type: functional
D(4) dopamine receptor = molecular target: T3, D(4) dopamine receptor (Homo sapiens, UniProt P21917)
T3 sequence (P21917 whole entry): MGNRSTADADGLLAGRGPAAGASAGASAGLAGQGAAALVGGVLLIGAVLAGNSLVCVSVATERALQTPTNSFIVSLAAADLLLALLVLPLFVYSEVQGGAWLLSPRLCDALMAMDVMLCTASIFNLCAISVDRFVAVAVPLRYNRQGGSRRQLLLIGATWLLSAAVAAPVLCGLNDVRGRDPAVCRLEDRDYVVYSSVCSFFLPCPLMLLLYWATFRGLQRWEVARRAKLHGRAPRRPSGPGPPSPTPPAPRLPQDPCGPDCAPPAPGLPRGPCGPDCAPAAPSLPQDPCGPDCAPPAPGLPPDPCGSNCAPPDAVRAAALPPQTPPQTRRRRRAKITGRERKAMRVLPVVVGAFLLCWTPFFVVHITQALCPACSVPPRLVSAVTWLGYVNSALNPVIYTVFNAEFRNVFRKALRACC

Androgen receptor = molecular target: T4, Androgen receptor (Rattus norvegicus, UniProt P15207)
T4 sequence (P15207 whole entry): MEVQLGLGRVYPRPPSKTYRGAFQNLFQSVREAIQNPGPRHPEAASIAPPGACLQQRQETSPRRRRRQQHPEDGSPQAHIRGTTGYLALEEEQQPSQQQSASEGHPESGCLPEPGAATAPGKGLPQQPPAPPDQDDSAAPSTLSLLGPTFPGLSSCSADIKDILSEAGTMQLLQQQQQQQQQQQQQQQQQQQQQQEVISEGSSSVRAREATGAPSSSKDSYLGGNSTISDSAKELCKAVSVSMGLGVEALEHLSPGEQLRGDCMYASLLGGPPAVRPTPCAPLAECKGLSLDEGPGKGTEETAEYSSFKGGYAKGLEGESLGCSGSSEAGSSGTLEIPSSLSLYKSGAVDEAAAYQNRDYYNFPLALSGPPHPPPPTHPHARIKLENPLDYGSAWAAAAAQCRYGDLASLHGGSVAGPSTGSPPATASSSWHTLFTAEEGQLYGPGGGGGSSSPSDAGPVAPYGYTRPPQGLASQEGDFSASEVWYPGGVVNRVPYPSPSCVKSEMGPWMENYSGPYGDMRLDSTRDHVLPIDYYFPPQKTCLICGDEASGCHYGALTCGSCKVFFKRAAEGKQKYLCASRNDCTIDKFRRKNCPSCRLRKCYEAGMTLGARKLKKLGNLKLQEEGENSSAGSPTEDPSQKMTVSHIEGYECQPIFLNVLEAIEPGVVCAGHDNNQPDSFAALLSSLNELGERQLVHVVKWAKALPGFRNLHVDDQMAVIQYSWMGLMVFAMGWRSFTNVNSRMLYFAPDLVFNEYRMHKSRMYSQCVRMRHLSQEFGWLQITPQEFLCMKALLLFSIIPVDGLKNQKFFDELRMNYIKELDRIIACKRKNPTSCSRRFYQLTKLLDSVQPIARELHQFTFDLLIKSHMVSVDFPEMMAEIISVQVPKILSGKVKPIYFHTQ

[5] = molecular target: Gamma-aminobutyric acid receptor subunit alpha-1/alpha-2/beta-2/gamma-2 (Homo sapiens, UniProt P14867+P18507+P47869+P47870); type: functional, cell-based
Gamma-aminobutyric acid receptor subunit alpha-1/alpha-2/beta-2/gamma-2, sequence (P14867 whole entry): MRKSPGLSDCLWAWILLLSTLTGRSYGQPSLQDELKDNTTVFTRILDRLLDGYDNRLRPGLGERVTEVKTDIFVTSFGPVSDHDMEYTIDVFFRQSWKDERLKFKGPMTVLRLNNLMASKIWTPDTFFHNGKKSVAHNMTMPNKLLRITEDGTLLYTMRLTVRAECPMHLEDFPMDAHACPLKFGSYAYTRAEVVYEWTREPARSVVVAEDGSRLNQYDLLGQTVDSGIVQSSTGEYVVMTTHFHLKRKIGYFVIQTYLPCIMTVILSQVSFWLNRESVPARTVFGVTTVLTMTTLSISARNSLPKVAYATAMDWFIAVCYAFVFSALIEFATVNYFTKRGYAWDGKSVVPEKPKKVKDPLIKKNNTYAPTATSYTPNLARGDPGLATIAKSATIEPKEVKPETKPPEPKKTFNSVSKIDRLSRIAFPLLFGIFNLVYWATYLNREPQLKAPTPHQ
Gamma-aminobutyric acid receptor subunit alpha-1/alpha-2/beta-2/gamma-2, sequence (P47870 whole entry): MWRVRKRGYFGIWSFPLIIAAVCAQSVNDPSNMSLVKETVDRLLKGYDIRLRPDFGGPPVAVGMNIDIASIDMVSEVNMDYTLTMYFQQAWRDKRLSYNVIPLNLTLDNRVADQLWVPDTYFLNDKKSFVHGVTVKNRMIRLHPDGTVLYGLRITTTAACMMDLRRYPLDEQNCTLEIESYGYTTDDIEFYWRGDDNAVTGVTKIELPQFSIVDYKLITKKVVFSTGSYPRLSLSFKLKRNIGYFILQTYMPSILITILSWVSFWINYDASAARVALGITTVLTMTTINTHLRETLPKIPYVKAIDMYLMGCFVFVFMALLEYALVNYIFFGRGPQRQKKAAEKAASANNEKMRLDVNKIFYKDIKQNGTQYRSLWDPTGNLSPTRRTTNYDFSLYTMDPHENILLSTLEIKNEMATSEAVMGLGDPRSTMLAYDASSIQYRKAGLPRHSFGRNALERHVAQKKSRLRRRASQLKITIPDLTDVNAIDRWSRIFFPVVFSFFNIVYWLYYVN
Gamma-aminobutyric acid receptor subunit alpha-1/alpha-2/beta-2/gamma-2, sequence (P18507 whole entry): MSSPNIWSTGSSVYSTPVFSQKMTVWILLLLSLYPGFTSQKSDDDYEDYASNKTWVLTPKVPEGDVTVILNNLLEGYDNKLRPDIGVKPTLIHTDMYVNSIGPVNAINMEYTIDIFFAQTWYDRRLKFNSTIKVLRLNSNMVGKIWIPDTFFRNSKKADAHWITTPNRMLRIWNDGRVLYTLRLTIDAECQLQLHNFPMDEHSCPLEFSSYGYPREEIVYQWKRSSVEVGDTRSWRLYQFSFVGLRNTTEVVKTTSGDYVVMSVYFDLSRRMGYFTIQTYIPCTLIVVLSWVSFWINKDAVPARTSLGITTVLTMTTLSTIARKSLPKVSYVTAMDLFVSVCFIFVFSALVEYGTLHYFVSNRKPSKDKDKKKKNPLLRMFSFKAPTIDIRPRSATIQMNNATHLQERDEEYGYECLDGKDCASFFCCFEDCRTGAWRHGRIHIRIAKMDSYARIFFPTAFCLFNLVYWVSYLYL
Gamma-aminobutyric acid receptor subunit alpha-1/alpha-2/beta-2/gamma-2, sequence (P47869 whole entry): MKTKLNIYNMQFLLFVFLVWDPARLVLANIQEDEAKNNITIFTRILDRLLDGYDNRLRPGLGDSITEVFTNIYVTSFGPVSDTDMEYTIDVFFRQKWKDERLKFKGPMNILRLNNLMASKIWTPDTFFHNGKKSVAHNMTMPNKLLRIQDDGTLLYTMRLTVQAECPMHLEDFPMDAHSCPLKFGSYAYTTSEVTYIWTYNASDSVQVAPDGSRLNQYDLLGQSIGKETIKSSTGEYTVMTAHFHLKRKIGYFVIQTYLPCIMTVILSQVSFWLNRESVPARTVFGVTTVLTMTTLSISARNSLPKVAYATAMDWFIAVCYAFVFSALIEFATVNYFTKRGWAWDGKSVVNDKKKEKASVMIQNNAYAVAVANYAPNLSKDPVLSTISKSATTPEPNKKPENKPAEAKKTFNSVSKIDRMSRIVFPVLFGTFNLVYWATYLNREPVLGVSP

D(1A) dopamine receptor = D(1A) dopamine receptor (Homo sapiens, UniProt P21728)
D(1A) dopamine receptor, sequence (P21728 whole entry): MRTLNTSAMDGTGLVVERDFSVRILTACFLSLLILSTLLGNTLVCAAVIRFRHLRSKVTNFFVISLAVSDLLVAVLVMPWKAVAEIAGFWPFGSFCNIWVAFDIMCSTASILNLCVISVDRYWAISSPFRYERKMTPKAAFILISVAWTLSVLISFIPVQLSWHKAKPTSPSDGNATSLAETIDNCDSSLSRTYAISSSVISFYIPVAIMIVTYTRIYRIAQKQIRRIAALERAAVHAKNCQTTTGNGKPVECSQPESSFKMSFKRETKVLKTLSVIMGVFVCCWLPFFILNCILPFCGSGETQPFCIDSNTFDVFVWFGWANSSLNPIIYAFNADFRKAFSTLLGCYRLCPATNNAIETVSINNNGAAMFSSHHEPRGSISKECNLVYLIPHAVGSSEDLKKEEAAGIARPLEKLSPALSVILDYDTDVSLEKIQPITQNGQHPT
Further: assay procedure not described here.

Glucagon receptor, sequence (P47871 whole entry): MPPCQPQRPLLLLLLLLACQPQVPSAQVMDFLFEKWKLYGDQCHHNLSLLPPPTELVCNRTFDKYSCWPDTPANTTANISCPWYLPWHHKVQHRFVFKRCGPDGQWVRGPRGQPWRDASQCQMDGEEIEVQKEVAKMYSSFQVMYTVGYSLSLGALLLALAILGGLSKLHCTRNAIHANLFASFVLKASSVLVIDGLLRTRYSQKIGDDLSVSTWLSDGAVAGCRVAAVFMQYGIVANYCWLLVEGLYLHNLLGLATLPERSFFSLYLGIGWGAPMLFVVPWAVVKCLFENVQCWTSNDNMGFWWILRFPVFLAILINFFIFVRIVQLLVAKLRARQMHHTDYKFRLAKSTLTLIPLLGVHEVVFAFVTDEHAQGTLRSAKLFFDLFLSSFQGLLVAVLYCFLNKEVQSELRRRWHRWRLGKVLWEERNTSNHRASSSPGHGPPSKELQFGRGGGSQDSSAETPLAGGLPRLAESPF
Substance-P receptor, sequence (P25103 whole entry): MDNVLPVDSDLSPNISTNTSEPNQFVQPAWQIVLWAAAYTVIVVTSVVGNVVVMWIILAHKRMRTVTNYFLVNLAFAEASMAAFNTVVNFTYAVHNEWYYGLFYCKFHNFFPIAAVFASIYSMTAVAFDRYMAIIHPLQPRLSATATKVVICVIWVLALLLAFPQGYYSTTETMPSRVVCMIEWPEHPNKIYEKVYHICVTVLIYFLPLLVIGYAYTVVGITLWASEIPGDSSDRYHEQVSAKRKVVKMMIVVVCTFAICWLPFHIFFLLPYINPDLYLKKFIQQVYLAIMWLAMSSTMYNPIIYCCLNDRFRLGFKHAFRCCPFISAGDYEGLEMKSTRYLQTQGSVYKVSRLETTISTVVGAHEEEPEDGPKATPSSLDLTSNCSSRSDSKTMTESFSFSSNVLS

In the case of `NCCCC(O)(P(=O)(O)O)P(=O)(O)O` [ALENDRONIC ACID], the AC50 (Substance-P receptor) is reported as over 10 µM, the AC50 (Glucagon receptor) is reported as over 30 µM and the AC50 [1] is reported as over 30 µM. It also gave an AC50 [2] of over 30 µM, an AC50 [3] of over 10 µM and an AC50 [4] of over 10 µM. For the same compound, the AC50 (Cannabinoid receptor 1) was over 10 µM and the AC50 (D(4) dopamine receptor) was over 10 µM.
With `NS(=O)(=O)c1cc2c(cc1C(F)(F)F)NC(Cc1ccccc1)NS2(=O)=O` (stereo not given) [BENDROFLUMETHIAZIDE] the AC50 (Androgen receptor) was over 10 µM.
For `O=C(CCCN1CCC(n2c(O)nc3ccccc32)CC1)c1ccc(F)cc1` [BENPERIDOL], the AC50 [5] was 20 µM.
`CCN(CC)C(=O)C1CN2CCc3cc(OC)c(OC)cc3C2CC1OC(C)=O` (stereo not given) [BENZQUINAMIDE] gave an AC50 [5] of over 30 µM and an AC50 (Androgen receptor) of over 10 µM.
With `CS(=O)(=O)OCCCCOS(C)(=O)=O` [BUSULFAN] the AC50 [5] was over 30 µM.
In the case of `CCCCC1(CC)C(=O)NC(=O)NC1=O` [BUTETHAL], the AC50 [5] is reported as over 30 µM.
Work on `CCCC(C)(COC(N)=O)COC(=O)NC(C)C` (stereo not given) [CARISOPRODOL] yielded an AC50 (Substance-P receptor) of over 10 µM, an AC50 (Glucagon receptor) of over 30 µM and an AC50 [1] of over 30 µM. It also gave an AC50 [2] of over 30 µM, an AC50 (D(1A) dopamine receptor) of over 10 µM and an AC50 (D(4) dopamine receptor) of over 10 µM.
`CO[C@@]1(NC(=O)Cc2cccs2)C(=O)N2C(C(=O)O)=C(COC(N)=O)CS[C@@H]21` [CEFOXITIN] showed an AC50 [5] of over 30 µM.
Compound `CCN(CC)CCOC(=O)c1ccc(N)cc1Cl` [CHLOROPROCAINE] has an AC50 [5] of over 30 µM.
`COCCOC(=O)C1=C(C)NC(C)=C(C(=O)OC/C=C/c2ccccc2)C1c1cccc([N+](=O)[O-])c1` (stereo not given) [CILNIDIPINE] showed an AC50 [5] of over 30 µM.
With `CC(C)(C)NCC(O)c1cc(Cl)c(N)c(Cl)c1` (stereo not given) [CLENBUTEROL] the AC50 [5] was over 30 µM and the AC50 (Androgen receptor) was over 30 µM.
Compound `N[C@H](Cc1cc(I)c(Oc2cc(I)c(O)c(I)c2)c(I)c1)C(=O)O` [DEXTROTHYROXINE] has an AC50 (Glucagon receptor) of over 30 µM, an AC50 [1] of over 30 µM and an AC50 [2] of over 30 µM. It also gave an AC50 (D(1A) dopamine receptor) of over 10 µM.
`CCCCC[C@H](O)/C=C/[C@H]1[C@H](O)CC(=O)[C@@H]1C/C=C\CCCC(=O)O` [DINOPROSTONE] was tested, and the AC50 (D(1A) dopamine receptor) was over 30 µM.
`Clc1ccc2c(c1)C(c1ccccc1)=NCc1nncn1-2` [ESTAZOLAM] was tested, and the AC50 (Androgen receptor) was over 30 µM.
Work on `CC(=O)OCC(CCn1cnc2cnc(N)nc21)COC(C)=O` [FAMCICLOVIR] yielded an AC50 (Substance-P receptor) of over 10 µM, an AC50 (Glucagon receptor) of over 30 µM and an AC50 [1] of over 30 µM. For the same compound, the AC50 [2] was over 30 µM, the AC50 (D(1A) dopamine receptor) was over 10 µM and the AC50 (D(4) dopamine receptor) was over 10 µM. The AC50 (Androgen receptor) was over 30 µM.
`Nc1nc(F)nc2c1ncn2[C@@H]1O[C@H](COP(=O)(O)O)[C@@H](O)[C@@H]1O` [FLUDARABINE PHOSPHATE] showed an AC50 (Androgen receptor) of over 30 µM.
With `O=C(O)c1ccccc1Nc1cccc(C(F)(F)F)c1` [FLUFENAMIC ACID] the AC50 (Glucagon receptor) was over 30 µM, the AC50 [1] was over 30 µM and the AC50 [2] was over 30 µM. The AC50 (Androgen receptor) was over 30 µM.
Compound `O=C(O)c1ccccc1OP(=O)(O)O` [FOSFOSAL] has an AC50 [5] of over 30 µM.
In the case of `CC1(C)C(/C=C/C=C/C=C/C=C2\N(CCCCS(=O)(=O)O)c3ccc4ccccc4c3C2(C)C)=[N+](CCCCS(=O)(=O)[O-])c2ccc3ccccc3c21` [INDOCYANINE GREEN ACID FORM], the AC50 [5] is reported as over 30 µM.
